This passage reports Papp results from PMC10885153, “Membrane Permeability in a Large Macrocyclic Peptide Driven by a Saddle-Shaped Conformation” (Journal of the American Chemical Society, 2024).

Each structure is given as a SMILES string. Positions of bridges follow the written chain, without caps; N, C: chain ends. Non-standard residues stand in square brackets, D forms with d. Residues, ends and D or L forms follow the SMILES beside them. NMeC = CN[C@@H](CS)C(=O)O; NMeA = CN[C@@H](C)C(=O)O; dAbu = CC[C@@H](N)C(=O)O; dNMeA = CN[C@H](C)C(=O)O; Abu = CC[C@H](N)C(=O)O; Nleu = CC(C)CNCC(=O)O; NEtG = CCNCC(=O)O

One may read the Papp as a coefficient for how fast a substance crosses the barrier. Low readings indicate poor permeation, high ones ready permeation.

The nature of this series: in vitro. The settings on record: PAMPA, pH 7.4, PAMPA Pe_avg. (PAMPA measures passive passage across an artificial lipid membrane.)
Procedure: Passive permeabilities of the 36 compounds were measured in multiplex as mixtures of six compounds each using the parallel artificial membrane permeability assay (PAMPA).[44]−[46]
Protocol is identical for both mixture and pure compound analysis.
Two of the following: Carbamazepine (CBZ), propranolol (Prop), and 1NMe35 were
included as internal standards and prepared as DMSO stocks at a concentration of 2 000 µM.
assay was carried out with a 96-well donor plate with 0.45 μ hydrophobic Immobilon-P membrane supports
(Millipore MAIPNTR10) and a 96-well Teflon acceptor plate (Millipore MSSACCEPTOR).
protocol then proceeded as follows:
Donor well solutions were prepared to a volume of 1 000 µL with the analytes as a solution in 1X
PBS pH 7.4 and 5% DMSO. To a 3 mL Eppendorf tube was added 950 µL of 1X PBS pH 7.4, 40
The solutions were vortexed and set aside.
Analyte – 10 µM per compound
A 1% solution of soy lecithin in dodecane was freshly prepared in a 3 mL Eppendorf tube and
sonicated (5 min) to ensure full dissolution of the lecithin. The donor membrane plate was turned
upside down and bottom of the membranes exposed. 5 µL of the 1% soy lecithin solution in
dodecane was then placed on the bottom of the membrane, allowing the drop to spread across the
full area of the membrane. Any membranes with visible damage were not used in the assay.
membranes were allowed to equilibrate for 5 min before loading.
Each well within the Teflon block acceptor plate that was to be used in the assay was then loaded
with 300 µL of 1X PBS pH 7.4 and 5% DMSO.
Working without break, 150 µL of each donor well solution was transferred from the to the 96-well
donor plate. Each mixture of interest was r un in quadruplicate, using a new well for each replicate.
As soon as the 96-well donor plate was finished being loaded, it was gently placed into the 96-well
Teflon acceptor plate, taking care not to trap any air bubbles beneath the membrane.
The donor/acceptor plates were covered gently with the lid to minimize evaporation and transferred
gently as a system to a sealed chamber and left to sit overnight at room temperature. The chamber
was kept from drying by placing a wet paper towel within to prevent evaporation.
After ~19-20 hours the donor plate was removed from the acceptor plate.
50 µL of each well (donor and acceptor) were transferred to a 96 -well plate and diluted with 50 µL
of methanol prior to heat sealing and quantification by UPLC -MS.
Take `CCOC(=O)[C@@H]1CSCC(=O)N[C@H](CC)C(=O)N(C)[C@@H](C)C(=O)N[C@H](CC(C)C)C(=O)N2CCC[C@@H]2C(=O)N(CC)CC(=O)N[C@H](CC(C)C)C(=O)N(C)[C@H](C)C(=O)N[C@@H](CC(C)C)C(=O)N1C` [JF206_ADD_DDDD_Ethyl] ({CH2CO}-[dAbu][NMeA][dL][dP][NEtG][dL][dNMeA]L[NMeC]-OEt; thioether N-9): the Papp at 10 µM came out at 0.16 ×10⁻⁶ cm/s.

On to `CCOC(=O)[C@@H]1CSCC(=O)N[C@H](CC)C(=O)N(C)[C@@H](C)C(=O)N[C@H](CC(C)C)C(=O)N2CCC[C@@H]2C(=O)N(CC)CC(=O)N[C@H](CC(C)C)C(=O)N(C)[C@@H](C)C(=O)N[C@@H](CC(C)C)C(=O)N1C` [JF206_ADD_DDDL_Ethyl] ({CH2CO}-[dAbu][NMeA][dL][dP][NEtG][dL][NMeA]L[NMeC]-OEt; thioether N-9), for which the Papp at 10 µM turned out to be 0.162 ×10⁻⁶ cm/s.

As to `CCOC(=O)[C@@H]1CSCC(=O)N[C@H](CC)C(=O)N(C)[C@@H](C)C(=O)N[C@H](CC(C)C)C(=O)N2CCC[C@@H]2C(=O)N(CC)CC(=O)N[C@@H](CC(C)C)C(=O)N(C)[C@H](C)C(=O)N[C@@H](CC(C)C)C(=O)N1C` [JF206_ADD_DDLD_Ethyl] ({CH2CO}-[dAbu][NMeA][dL][dP][NEtG]L[dNMeA]L[NMeC]-OEt; thioether N-9), the Papp at 10 µM came out at 0.005 ×10⁻⁶ cm/s.

Molecule `CCOC(=O)[C@@H]1CSCC(=O)N[C@H](CC)C(=O)N(C)[C@@H](C)C(=O)N[C@H](CC(C)C)C(=O)N2CCC[C@@H]2C(=O)N(CC(C)C)CC(=O)N[C@@H](CC(C)C)C(=O)N(C)[C@H](C)C(=O)N[C@@H](CC(C)C)C(=O)N1C` [JF206_ADD_DDLD_Isobutyl] ({CH2CO}-[dAbu][NMeA][dL][dP][Nleu]L[dNMeA]L[NMeC]-OEt; thioether N-9) gave a Papp at 10 µM of 0.125 ×10⁻⁶ cm/s.

`CCOC(=O)[C@@H]1CSCC(=O)N[C@H](CC)C(=O)N(C)[C@@H](C)C(=O)N[C@@H](CC(C)C)C(=O)N2CCC[C@@H]2C(=O)N(CC(C)C)CC(=O)N[C@H](CC(C)C)C(=O)N(C)[C@H](C)C(=O)N[C@@H](CC(C)C)C(=O)N1C` [JF206_ADD_DLDD_Isobutyl] ({CH2CO}-[dAbu][NMeA]L[dP][Nleu][dL][dNMeA]L[NMeC]-OEt; thioether N-9) came in with a Papp at 10 µM of 0.118 ×10⁻⁶ cm/s.

On to `CCOC(=O)[C@@H]1CSCC(=O)N[C@H](CC)C(=O)N(C)[C@@H](C)C(=O)N[C@@H](CC(C)C)C(=O)N2CCC[C@@H]2C(=O)N(CC)CC(=O)N[C@H](CC(C)C)C(=O)N(C)[C@@H](C)C(=O)N[C@@H](CC(C)C)C(=O)N1C` [JF206_ADD_DLDL_Ethyl] ({CH2CO}-[dAbu][NMeA]L[dP][NEtG][dL][NMeA]L[NMeC]-OEt; thioether N-9), for which the Papp at 10 µM is 0.003 ×10⁻⁶ cm/s.

Molecule `CCOC(=O)[C@@H]1CSCC(=O)N[C@H](CC)C(=O)N(C)[C@@H](C)C(=O)N[C@@H](CC(C)C)C(=O)N2CCC[C@@H]2C(=O)N(CC(C)C)CC(=O)N[C@H](CC(C)C)C(=O)N(C)[C@@H](C)C(=O)N[C@@H](CC(C)C)C(=O)N1C` [JF206_ADD_DLDL_Isobutyl] ({CH2CO}-[dAbu][NMeA]L[dP][Nleu][dL][NMeA]L[NMeC]-OEt; thioether N-9) came in with a Papp at 10 µM of 0.173 ×10⁻⁶ cm/s.

In turn, `CCOC(=O)[C@@H]1CSCC(=O)N[C@H](CC)C(=O)N(C)[C@@H](C)C(=O)N[C@@H](CC(C)C)C(=O)N2CCC[C@@H]2C(=O)N(CC)CC(=O)N[C@@H](CC(C)C)C(=O)N(C)[C@H](C)C(=O)N[C@@H](CC(C)C)C(=O)N1C` [JF206_ADD_DLLD_Ethyl] ({CH2CO}-[dAbu][NMeA]L[dP][NEtG]L[dNMeA]L[NMeC]-OEt; thioether N-9) had a Papp at 10 µM of 0.174 ×10⁻⁶ cm/s.

As to `CCOC(=O)[C@@H]1CSCC(=O)N[C@H](CC)C(=O)N(C)[C@@H](C)C(=O)N[C@@H](CC(C)C)C(=O)N2CCC[C@@H]2C(=O)N(CC)CC(=O)N[C@@H](CC(C)C)C(=O)N(C)[C@@H](C)C(=O)N[C@@H](CC(C)C)C(=O)N1C` [JF206_ADD_DLLL_Ethyl] ({CH2CO}-[dAbu][NMeA]L[dP][NEtG]L[NMeA]L[NMeC]-OEt; thioether N-9), the Papp at 10 µM stood at 0.561 ×10⁻⁶ cm/s.

Molecule `CCOC(=O)[C@@H]1CSCC(=O)N[C@H](CC)C(=O)N(C)[C@@H](C)C(=O)N[C@@H](CC(C)C)C(=O)N2CCC[C@@H]2C(=O)N(CC(C)C)CC(=O)N[C@@H](CC(C)C)C(=O)N(C)[C@@H](C)C(=O)N[C@@H](CC(C)C)C(=O)N1C` [JF206_ADD_DLLL_Isobutyl] ({CH2CO}-[dAbu][NMeA]L[dP][Nleu]L[NMeA]L[NMeC]-OEt; thioether N-9) displayed a Papp at 10 µM of 0.688 ×10⁻⁶ cm/s.

As to `CCOC(=O)[C@@H]1CSCC(=O)N[C@@H](CC)C(=O)N(C)[C@@H](C)C(=O)N[C@H](CC(C)C)C(=O)N2CCC[C@@H]2C(=O)N(CC)CC(=O)N[C@H](CC(C)C)C(=O)N(C)[C@H](C)C(=O)N[C@@H](CC(C)C)C(=O)N1C` [JF206_ADL_LDDD_Ethyl] ({CH2CO}-[Abu][NMeA][dL][dP][NEtG][dL][dNMeA]L[NMeC]-OEt; thioether N-9), the Papp at 10 µM amounted to 0.177 ×10⁻⁶ cm/s.

Turning to `CCOC(=O)[C@@H]1CSCC(=O)N[C@@H](CC)C(=O)N(C)[C@@H](C)C(=O)N[C@H](CC(C)C)C(=O)N2CCC[C@@H]2C(=O)N(CC)CC(=O)N[C@H](CC(C)C)C(=O)N(C)[C@@H](C)C(=O)N[C@@H](CC(C)C)C(=O)N1C` [JF206_ADL_LDDL_Ethyl] ({CH2CO}-[Abu][NMeA][dL][dP][NEtG][dL][NMeA]L[NMeC]-OEt; thioether N-9), the Papp at 10 µM came out at 0.315 ×10⁻⁶ cm/s.

In turn, `CCOC(=O)[C@@H]1CSCC(=O)N[C@@H](CC)C(=O)N(C)[C@@H](C)C(=O)N[C@H](CC(C)C)C(=O)N2CCC[C@@H]2C(=O)N(CC)CC(=O)N[C@@H](CC(C)C)C(=O)N(C)[C@@H](C)C(=O)N[C@@H](CC(C)C)C(=O)N1C` [JF206_ADL_LDLL_Ethyl] ({CH2CO}-[Abu][NMeA][dL][dP][NEtG]L[NMeA]L[NMeC]-OEt; thioether N-9) registered a Papp at 10 µM of 0.013 ×10⁻⁶ cm/s.

Consider `CCOC(=O)[C@@H]1CSCC(=O)N[C@@H](CC)C(=O)N(C)[C@@H](C)C(=O)N[C@@H](CC(C)C)C(=O)N2CCC[C@@H]2C(=O)N(CC)CC(=O)N[C@H](CC(C)C)C(=O)N(C)[C@H](C)C(=O)N[C@@H](CC(C)C)C(=O)N1C` [JF206_ADL_LLDD_Ethyl] ({CH2CO}-[Abu][NMeA]L[dP][NEtG][dL][dNMeA]L[NMeC]-OEt; thioether N-9), for which the Papp at 10 µM was determined as 0.018 ×10⁻⁶ cm/s.

In turn, `CCOC(=O)[C@@H]1CSCC(=O)N[C@@H](CC)C(=O)N(C)[C@@H](C)C(=O)N[C@@H](CC(C)C)C(=O)N2CCC[C@@H]2C(=O)N(CC(C)C)CC(=O)N[C@H](CC(C)C)C(=O)N(C)[C@H](C)C(=O)N[C@@H](CC(C)C)C(=O)N1C` [JF206_ADL_LLDD_Isobutyl] ({CH2CO}-[Abu][NMeA]L[dP][Nleu][dL][dNMeA]L[NMeC]-OEt; thioether N-9) came in with a Papp at 10 µM of 0.286 ×10⁻⁶ cm/s.

Molecule `CCOC(=O)[C@@H]1CSCC(=O)N[C@@H](CC)C(=O)N(C)[C@@H](C)C(=O)N[C@@H](CC(C)C)C(=O)N2CCC[C@@H]2C(=O)N(CC)CC(=O)N[C@H](CC(C)C)C(=O)N(C)[C@@H](C)C(=O)N[C@@H](CC(C)C)C(=O)N1C` [JF206_ADL_LLDL_Ethyl] ({CH2CO}-[Abu][NMeA]L[dP][NEtG][dL][NMeA]L[NMeC]-OEt; thioether N-9) displayed a Papp at 10 µM of 0.011 ×10⁻⁶ cm/s.

The molecule `CCOC(=O)[C@@H]1CSCC(=O)N[C@@H](CC)C(=O)N(C)[C@@H](C)C(=O)N[C@@H](CC(C)C)C(=O)N2CCC[C@@H]2C(=O)N(CC(C)C)CC(=O)N[C@H](CC(C)C)C(=O)N(C)[C@@H](C)C(=O)N[C@@H](CC(C)C)C(=O)N1C` [JF206_ADL_LLDL_Isobutyl] ({CH2CO}-[Abu][NMeA]L[dP][Nleu][dL][NMeA]L[NMeC]-OEt; thioether N-9) yielded a Papp at 10 µM of 0.229 ×10⁻⁶ cm/s. Compared with the last molecule, the Papp at 10 µM is about 21-fold higher.
